Here are results for four compounds from patent publication US12551576B2, “Chemiluminescent probes” (The General Hospital Corporation, priority 2020, dated 2026).

The nature of data set [1]: Fluorescence and chemiluminescence spectral studies. The class given is physicochemical. As for the experimental part: Materials and Methods: reagents used for the synthesis were purchased from Sigma-Aldrich and used without further purification. Column chromatography was performed on a glass column slurry-packed with silica gel (60 Å, […]; SiliCycle Inc.). Recombinant Aβ peptide (1-40/42) were purchased from rPeptide (A-1163-1). Aβ aggregates for in vitro studies were generated by slow stirring of Aβ40 in PBS buffer for 3 days at room temperature. ^1H and ^13C NMR spectra were recorded at 500 MHz and 125 MHz on Bruker spectrometers in CDCl3, CD3OD or DMSO-d6 solutions at room temperature with tetramethylsilane (TMS, δ=0) as an internal standard. Liquid chromatography-mass spectrometry (LC-MS) was performed using an Agilent 1200 Series apparatus with an LC/MSD trap and Daly conversion dynode detector with UV detection at 254 nm. Fluorescence measurements were carried out using an F-7100 fluorescence spectrophotometer (Hitachi). Transgenic female 5×FAD mice and age-matched wild-type female mice were purchased from Jackson Laboratory. All animal experiments were approved by the Institutional Animal Use and Care Committee at Massachusetts General Hospital. The IVIS Spectrum animal imaging system (PerkinElmer) was used for in vitro and in vivo imaging.
Fluorescence spectral studies: Normally, all chemiluminescent molecules are fluorescent. The excitation and emission spectra of ADLumin-X were recorded and the emission peak of ADLumin-1 was around 590 nm (FIG. 1D) in DMSO, which is considerably longer than most of the commercially available chemiluminescence probes. The emission of ADLumin-2 is longer than that of ADLumin-1, due to its additional double-bond. (the emission peak of ADLumin-2 was 20 nm longer). […] Based on this fact, ADLumin-1 was used throughout this example, due to its high QY.
Chemiluminescence spectral studies: ADLumin-1 is stable in PBS buffer and organic solvents, including acetonitrile, dichloromethane and methanol. […] Without being bound by any theory, it is believed that the luminescence was due to the auto-oxidation of ADLumin-1. Although the mechanism of chemiluminescence of IPO derivatives has been studied, the mechanism of auto-oxidation has been rarely explored. In the course of the experiments, ADLumin-1 emitted very strong luminescence in pure DMSO (FIG. 2b). Unexpectedly, if the ADLumin-1 DMSO solution was stirred, even stronger luminescence can be detected (3.4-fold in FIG. 2b). Without being bound by any theory, it is believed that the luminescence was related to oxygen levels in DMSO. […] However, the increasing-fold decreased with cycles (FIG. 2c). […] Since no ROS were added into the DMSO solution, it is reasonable to infer that the auto-oxidation of ADLumin-1 was oxygen-level dependent. It is worthy to note that green fluorescent protein and luciferase/luciferin also dependent on oxygen for their proper imaging functions.

Data set [2] has as its system PA-K2. The data set is described as follows: ThT fluorescence test with PA-K and PA-K2. The class given is binding.
The subject of data set [3] is misfoldons in serum. The data set can be described thus: ThT test of misfoldons in serum. Further details: species or system human. The settings on record: some misfoldons. The source says:
However, the detected difference was much smaller than that by ADLumin-1.

Data set [4] deals with Aβ40 aggregates (Homo sapiens, UniProt P05067). The data set is described as follows: In vitro chemiluminescence study with Aβ aggregates in PBS. The settings on record: pH 7.4. The class given is binding.
Aβ40 aggregates, sequence (P05067 672-711 limits assumed): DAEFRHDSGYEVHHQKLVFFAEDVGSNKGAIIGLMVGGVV

`Cc1nc2c[nH]c(/C=C/C=C/C=C/c3ccc(N(C)C)cc3)cn-2c1=O` [ADLumin-2, 6-((1E,3E,5E)-6-(4-(dimethylamino)phenyl)hexa-1,3,5-trien-1-yl)-2-methylimidazo[1,2-a]pyrazin-3(7H)-one]: the “quantum yield ratio ΦADLumin-1/ΦADLumin-2” value in data set [1] came out at 1.5. In data set [1] (fluorescence, DMSO), the “emission peak longer than that of ADLumin-1” value came out at 20 nm.

With `Cc1ccc2c(c1)sc(-c1ccc(N(C)C)cc1)[n+]2C.[Cl-]` [ThT, Thioflavin T], the “difference lower than the difference provided by ADLumin-1” value in data set [2] was determined as 11.8 fold. In addition, the “fluorescence difference between PA-K and PA-K2” value in data set [2] (ThT 0.01 mg/ml) is given as “about 4.01 fold”. In addition, the “peptide concentration at which the difference PA-K vs PA-K2 is detected” value in data set [2] (fluorescence) was 0.1 mg/mL. The “ThT signal for misfoldons in serum” value in data set [3] is given as “slightly higher signal”.

Turning to MCLA [reference compound], the “chemiluminescence signal with Aβs” value in data set [4] is recorded as “significantly reduced signal”.

With firefly luciferin [reference compound], in data set [1], the “emission peak (FWHM comparison)” value turned out to be 570 nm and the “full width at half-maximum (FWHM)” value was determined as 83 nm.
